Test results as given in patent US10077238B2, “Small molecule LFA-1 inhibitors” (ALLOCYTE PHARMACEUTICALS AG, priority 2014, dated 2018).
“And” between values parts separate entries of the source, which are not always exact repeats. Identical values can stand only once.

Assays:
Type in all cases: cell-based
LFA-1 [1] = biological target: T1, LFA-1 (Homo sapiens, UniProt P20701); test: V well cell adhesion assay, LFA-1-mediated Jurkat cell binding to ICAM-1 (LFA-1 adhesion); settings: Jurkat cells on ICAM-1/Fc; mean ±SD of ≥3 independent experiments in triplicates or single experiments in triplicates
T1 construct: endogenous in cells; host or cells: Jurkat cells
Procedure: Cell-Based Assay to Determine the Effect of the Compounds on LFA-1-Mediated Cell Adhesion (LFA-1 Adhesion)
Purpose of the Assay: The V well cell adhesion assay measures the ability of the compounds to interfere with LFA-1-mediated binding to ICAM-1 at cellular level. The assay has been successfully used in the past to identify and characterize small molecules LFA-1 inhibitors.
Experimental Protocol: The adhesion assay was performed in Vbottom 96-well plates as described previously [Weitz-Schmidt 2012]. Briefly, the plates were coated with anti-human IgG mAb diluted in coating buffer (20 mM Tris containing 150 mM NaCl, pH 8) (1 μg/mL) and incubated overnight at 4° C. The plates were flicked out and blocked with blocking buffer (50 mM Tris base, 150 mM NaCl, 1.5% BSA (w/v), pH 7.2) at 37° C. for 90 min. Then human recombinant ICAM-1/Fc (R&D Systems) diluted in coating buffer (0.3 μg/mL) was added to each well. The plates were incubated at 37° C. for 90 min and washed with binding buffer (50 mM Tris base, 150 mM NaCl, 1.5% BSA (w/v), 2 mM MgCl2, 2 mM MnCl2, 5 mM D-glucose monohydrate, pH 7.2-7.4) to remove unbound ligand.
Jurkat cells were cultured under standard conditions as recommended by the American Type Culture collection (ATCC). The cells were fluorescently labelled with BCECF-AM in PBS (1 μg/mL) at 37° C. for 20 min in the dark, centrifuged and washed with PBS. The test compounds were dissolved in DMSO at 10 mM and serially pre-diluted in DMSO (100%) to avoid precipitation, before performing final dilution steps in binding buffer.
The labelled Jurkat cells were re-suspended in binding buffer and test compounds or solvent control were added. The DMSO concentration was kept constant in all samples (1% DMSO as final assay concentration). After 40 min at 37° C. (LFA-1 activation and compound pre-incubation step) the cell suspension (3×10^5 cells/mL in binding buffer) was pipetted up and down and transferred to the ligand-coated microtiter V well plates (30 000 cells/well). The plates were centrifuged for 4 min at room temperature (rt) at 1000 rpm (Centrifuge Eppendorf 5810 R), setting the brake off Non-adherent cells that accumulated in the center of the Vbottom were quantified using a fluorescence reader with the filter sets allowing excitation at 485 nm and quantification of emission at 535 nm. The determination of the half maximal inhibitory concentration (IC50) of the compounds was calculated using the software GraphPad Prism 6.

LFA-1 [2] = biological target: T1, LFA-1; test: Flow cytometry, mAb R7.1 binding to LFA-1 expressed on leukocytes; settings: Jurkat cells or human PBMCs, values of independent experiments; for inhibition at 1 µM: Jurkat
Procedure: Measurement of mAb R7.1 binding to LFA-1 (mAb R7.1 binding)
Purpose of the Assay: This flow cytometry assay determines the effect of the compounds on the binding of the anti-LFA-1 mAb R7.1 to LFA-1 expressed on leukocytes.
Experimental Protocol: Jurkat cells or human peripheral blood mononuclear cells (PBMCs) were resuspended in assay buffer (50 mM Tris, 150 mM NaCl, 2 mM MgCl2, 1.5% BSA and 5 mM D-glucose monohydrate, pH7.2) at 2×10^6 cells/mL and 500 μL of this cell suspension (1×10^6 cells) were transferred into polypropylene tubes containing the test compounds diluted in 500 μL assay buffer. The samples were pre-incubated at 37° C. for 40 min, and centrifuged. The supernatants were removed and FITC-labelled anti-LFA-1 mAb R7.1 and PE-labeled anti-LFA-1 mAb TS2/4 (mAb TS2/4 is not affected by alpha I allosteric inhibitor binding to LFA-1) or appropriate isotype controls were added directly to each cell pellet. The pellets were then gently pipetted up and down and incubated on ice for 30 min in the dark. After the incubation step the cells were washed twice with PBS and resuspended in PBS.
Antibody binding was analyzed by flow cytometry. Mean fluorescence intensities (MFI) were calculated using the CellQuest software. The values are expressed as % of solvent control (solvent control=100% binding).

VLA-4 = biological target: T2, VLA-4 (Homo sapiens, UniProt P05556+P13612); test: V well cell adhesion assay, VLA-4-mediated Jurkat cell binding to VCAM-1 (VLA-4 adhesion); settings: Jurkat cells on VCAM-1 Fc; single experiments run in triplicates
T2 construct: endogenous in cells; host or cells: Jurkat cells
Procedure: Cell-Based Assay to Determine the Selectivity of the Compounds Over the Integrin VLA-4 (VLA-4 Adhesion)
Purpose of the Assay: This V well cell adhesion assay measures the effect of the compounds on VLA-4-mediated Jurkat cell binding to VCAM-1. The assay has been successfully used in the past to determine the selectivity of small molecule LFA-1 inhibitors over the integrin VLA-4.
Experimental Protocol: The adhesion assay was performed as described above for the Jurkat/ICAM-1 V well adhesion assay. Briefly, plates were coated with anti-human IgG mAb and blocked with BSA as described above. Instead of ICAM-1, recombinant human VCAM-1/CD106 Fc chimera (R&D Systems) was coated onto the plates (0.3 μg/mL in coating buffer). After incubation, labelled Jurkat cells in binding buffer were transferred to the wells (20,000 cells/well). The plates were immediately centrifuged at 1000 rpm for 4 min at rt (Centrifuge Eppendorf 5810 R) setting the brakeoff. Non-adherent cells were quantified in the tip of the Vbottom well using a fluorescence reader. IC50 values of the compounds were calculated using the software GraphPad Prism 6.

LFA-1 [3] = biological target: T1, LFA-1; test: Flow cytometry, mAb MEM148 binding to LFA-1 expressed on leukocytes; settings: solvent ctrl = 1, Jurkat cells or PBMCs
Procedure: Quantification of mAb MEM148 Binding to LFA-1 (mAb MEM148 Binding)
Purpose of the Assay: This flow cytometry assay determines the effect of the compounds on the binding of the conformation-sensitive anti-LFA-1 mAb MEM148 to LFA-1 expressed on leukocytes. The mAb MEM148 detects an epitope which becomes exposed in activated LFA-1 [Yuki 2012]
Experimental Protocol: The assay is performed as the flow cytometry assay described above.
Briefly, Jurkat cells or PBMCs in assay buffer (50 mM Tris, 150 mM NaCl, 1 mM CaCl2, 1 mM MgCl2, 5 mM Glucose, 1.5% BSA, pH 7.3) were pre-incubated with the compounds and appropriate positive controls for 40 min at rt. After incubation, the cell-suspension was centrifuged, the supernatant discarded and PE-labelled anti-LFA-1 mAb MEM148 was directly added to the pellets. After pipetting up and down, the tubes were incubated for 30 min. at 37° C. in the dark. The pellet was washed twice with 1 mL PBS and resuspended in PBS. Antibody binding was quantified by flow cytometry. Mean fluorescence intensities (MFI) were calculated using the CellQuest software.

T2 sequence (P13612 34-1032): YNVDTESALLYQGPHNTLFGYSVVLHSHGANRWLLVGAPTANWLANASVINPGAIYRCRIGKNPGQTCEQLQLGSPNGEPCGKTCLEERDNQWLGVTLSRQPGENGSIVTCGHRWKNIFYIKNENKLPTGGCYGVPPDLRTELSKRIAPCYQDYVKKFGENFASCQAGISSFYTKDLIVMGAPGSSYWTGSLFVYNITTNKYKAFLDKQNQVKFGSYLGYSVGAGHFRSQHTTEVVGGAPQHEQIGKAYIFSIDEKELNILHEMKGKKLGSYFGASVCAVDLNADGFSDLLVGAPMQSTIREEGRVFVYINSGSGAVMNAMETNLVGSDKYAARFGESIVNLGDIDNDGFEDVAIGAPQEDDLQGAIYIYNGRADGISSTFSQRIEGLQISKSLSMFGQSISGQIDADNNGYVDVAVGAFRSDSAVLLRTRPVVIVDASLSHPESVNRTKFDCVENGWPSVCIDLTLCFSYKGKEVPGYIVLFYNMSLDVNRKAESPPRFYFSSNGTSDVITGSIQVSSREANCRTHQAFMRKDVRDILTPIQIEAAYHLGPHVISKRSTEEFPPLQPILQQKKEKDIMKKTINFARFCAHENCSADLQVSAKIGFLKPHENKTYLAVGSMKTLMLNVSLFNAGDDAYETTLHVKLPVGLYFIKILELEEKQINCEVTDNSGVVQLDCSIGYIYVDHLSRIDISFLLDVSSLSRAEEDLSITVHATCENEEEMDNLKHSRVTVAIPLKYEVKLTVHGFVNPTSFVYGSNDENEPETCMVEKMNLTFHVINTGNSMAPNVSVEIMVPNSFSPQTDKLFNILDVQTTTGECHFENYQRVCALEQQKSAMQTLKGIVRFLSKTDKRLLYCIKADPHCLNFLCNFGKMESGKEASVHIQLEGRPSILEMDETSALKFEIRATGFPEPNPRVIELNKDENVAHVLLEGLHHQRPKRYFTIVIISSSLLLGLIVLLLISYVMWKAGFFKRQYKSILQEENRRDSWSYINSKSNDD
T2 sequence (P05556 21-798): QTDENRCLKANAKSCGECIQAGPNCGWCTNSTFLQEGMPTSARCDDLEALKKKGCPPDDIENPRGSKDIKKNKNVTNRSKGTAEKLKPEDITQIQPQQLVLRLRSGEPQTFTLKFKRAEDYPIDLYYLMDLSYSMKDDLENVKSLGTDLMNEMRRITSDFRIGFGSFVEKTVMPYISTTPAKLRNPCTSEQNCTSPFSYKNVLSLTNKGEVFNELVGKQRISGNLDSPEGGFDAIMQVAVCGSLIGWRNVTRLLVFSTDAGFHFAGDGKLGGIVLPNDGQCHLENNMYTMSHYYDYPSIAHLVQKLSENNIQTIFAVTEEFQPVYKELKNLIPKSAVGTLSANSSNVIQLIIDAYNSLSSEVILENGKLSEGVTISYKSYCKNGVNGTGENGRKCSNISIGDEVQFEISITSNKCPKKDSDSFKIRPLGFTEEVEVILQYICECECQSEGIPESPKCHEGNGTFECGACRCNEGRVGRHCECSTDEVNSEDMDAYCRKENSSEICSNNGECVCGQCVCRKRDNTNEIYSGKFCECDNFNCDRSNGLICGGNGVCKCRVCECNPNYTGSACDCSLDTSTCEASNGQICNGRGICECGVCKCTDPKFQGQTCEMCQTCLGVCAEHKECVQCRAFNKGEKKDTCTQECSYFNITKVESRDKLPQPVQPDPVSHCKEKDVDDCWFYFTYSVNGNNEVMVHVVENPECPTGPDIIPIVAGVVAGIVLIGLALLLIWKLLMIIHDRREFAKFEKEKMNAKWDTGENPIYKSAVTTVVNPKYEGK
T1 sequence (P20701 26-1170): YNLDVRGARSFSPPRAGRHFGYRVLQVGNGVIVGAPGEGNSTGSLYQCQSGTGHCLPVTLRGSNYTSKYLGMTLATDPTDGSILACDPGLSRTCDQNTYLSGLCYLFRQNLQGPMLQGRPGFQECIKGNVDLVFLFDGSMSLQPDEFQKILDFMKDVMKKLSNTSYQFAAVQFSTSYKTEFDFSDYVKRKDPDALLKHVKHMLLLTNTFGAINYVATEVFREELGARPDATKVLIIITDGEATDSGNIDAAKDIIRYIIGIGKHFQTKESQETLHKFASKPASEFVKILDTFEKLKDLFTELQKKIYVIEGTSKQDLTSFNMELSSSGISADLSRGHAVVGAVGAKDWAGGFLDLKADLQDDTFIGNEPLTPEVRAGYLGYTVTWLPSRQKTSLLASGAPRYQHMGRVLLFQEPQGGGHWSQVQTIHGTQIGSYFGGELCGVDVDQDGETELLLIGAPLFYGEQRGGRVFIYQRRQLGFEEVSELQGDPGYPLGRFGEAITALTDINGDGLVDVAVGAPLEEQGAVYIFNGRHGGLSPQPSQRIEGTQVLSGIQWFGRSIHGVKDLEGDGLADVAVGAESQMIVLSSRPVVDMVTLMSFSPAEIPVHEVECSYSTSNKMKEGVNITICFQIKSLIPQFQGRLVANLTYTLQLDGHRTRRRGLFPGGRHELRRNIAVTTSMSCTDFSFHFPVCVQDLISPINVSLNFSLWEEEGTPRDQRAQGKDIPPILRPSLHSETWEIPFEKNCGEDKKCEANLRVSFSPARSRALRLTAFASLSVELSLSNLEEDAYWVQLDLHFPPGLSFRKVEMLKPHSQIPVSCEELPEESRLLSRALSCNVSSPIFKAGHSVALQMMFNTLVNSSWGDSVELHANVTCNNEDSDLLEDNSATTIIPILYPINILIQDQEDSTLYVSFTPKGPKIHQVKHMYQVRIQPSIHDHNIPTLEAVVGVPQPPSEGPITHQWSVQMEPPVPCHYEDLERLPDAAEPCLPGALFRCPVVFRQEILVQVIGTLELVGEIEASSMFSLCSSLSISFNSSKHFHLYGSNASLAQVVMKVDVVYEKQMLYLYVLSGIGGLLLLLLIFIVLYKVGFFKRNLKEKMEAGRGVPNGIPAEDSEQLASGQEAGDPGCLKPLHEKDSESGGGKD
T1 sequence (P05107 23-769 partner): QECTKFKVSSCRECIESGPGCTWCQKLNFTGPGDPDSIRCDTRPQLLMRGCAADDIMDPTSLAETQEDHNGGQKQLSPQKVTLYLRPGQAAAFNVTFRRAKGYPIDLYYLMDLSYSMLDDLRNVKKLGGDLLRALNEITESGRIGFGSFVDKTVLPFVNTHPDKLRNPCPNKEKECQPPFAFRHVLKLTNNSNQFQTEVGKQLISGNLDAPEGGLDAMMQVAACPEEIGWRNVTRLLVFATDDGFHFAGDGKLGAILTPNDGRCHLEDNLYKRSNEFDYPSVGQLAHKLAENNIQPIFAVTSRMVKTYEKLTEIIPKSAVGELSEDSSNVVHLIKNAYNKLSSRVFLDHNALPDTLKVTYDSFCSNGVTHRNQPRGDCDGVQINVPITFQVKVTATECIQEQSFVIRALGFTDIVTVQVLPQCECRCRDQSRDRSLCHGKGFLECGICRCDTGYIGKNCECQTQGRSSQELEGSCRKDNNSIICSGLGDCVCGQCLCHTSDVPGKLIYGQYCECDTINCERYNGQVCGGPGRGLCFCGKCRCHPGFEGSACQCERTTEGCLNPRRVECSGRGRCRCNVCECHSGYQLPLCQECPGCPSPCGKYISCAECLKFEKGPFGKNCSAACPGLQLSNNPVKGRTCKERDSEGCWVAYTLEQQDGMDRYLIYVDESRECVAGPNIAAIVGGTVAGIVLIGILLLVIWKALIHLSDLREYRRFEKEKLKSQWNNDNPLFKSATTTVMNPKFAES

| Compound | IC50 (LFA-1 [1]) | inhibition at 1 µM (LFA-1 [2]) | IC50 (VLA-4) | mAb MEM148 binding, binding relative to solvent ctrl at 10 μM (LFA-1 [3]) | mAb R7.1 binding % inhibition at 1 μM (LFA-1 [2]) |
| --- | --- | --- | --- | --- | --- |
| O=C1[C@@H]2[C@H](C(=O)N1c1cc(Cl)cc(Cl)c1)C2(c1ccc(OC(F)(F)F)cc1)c1ccc(OC(F)(F)F)cc1 [Compound 4p, 3-(3,5-Dichlorophenyl)-6,6-bis[4-(trifluoromethoxy)phenyl]-3-azabicyclo[3.1.0.]hexane-2,4-dione] | > 1 µM | 74.3% |  |  |  |
| C[C@]12C(=O)N(c3cc(Cl)cc(Cl)c3)C(=O)[C@H]1C2(c1ccc(C#N)cc1)c1ccc(C#N)cc1 (racemic) [4v (racemate), rac-4-[(1S,5S)-6-(4-Cyanophenyl)-3-(3,5-dichlorophenyl)-1-methyl-2,4-dioxo-3-azabicyclo[3.1.0]hexan-6-yl]benzonitrile] | 0.045 ± 0.014 µM |  | > 10 µM |  |  |
| CCOC(=O)[C@@]1(c2ccc(Br)cc2)[C@@H]2C(=O)N(c3cc(Cl)cc(Cl)c3)C(=O)[C@@]21C (racemic) [4′j (racemate), rac-Ethyl-(1 S, 5R, 6R)-6-(4-bromophenyl)-3-(3,5-dichlorophenyl)-1-methyl-2,4-dioxo-3-azabicyclo[3.1.0]-hexane-6-carboxylate] | 0.375 ± 0.204 µM | 93.6% | > 10 µM | 0.738 |  |
| O=C1C2C(C(=O)N1c1cc(Cl)cc(Cl)c1)C2(c1ccncc1)c1ccc(OC(F)(F)F)cc1 (single isomer, unassigned) [4w or 4′w diastereomer I] | 0.215 ± 0.134 µM |  | > 10 µM |  | 95.7% |
| N#Cc1ccc(C2(c3ccc(C#N)cc3)[C@@H]3C(=O)N(c4cc(Cl)cc(Cl)c4)C(=O)[C@@H]32)cc1 [Compound 4u, 4-[6-(4-Cyanophenyl)-3-(3,5-dichlorophenyl)-2,4-dioxo-3-azabicyclo[3.1.0]hexan-6-yl]benzonitrile] | > 1 µM | 87.1% |  |  |  |
| C[C@]12C(=O)N(c3cc(Cl)cc(Cl)c3)C(=O)[C@H]1[C@H]2c1ccccc1 (racemic) [4′d (racemate), rac-(1R,5S,6S)-3-(3,5-Dichlorophenyl)-1-methyl-6-phenyl-3-azabicyclo[3.1.0]hexane-2,4-dione] | 1.54 ± 0.646 µM | 80.5% |  |  |  |
| O=C1C2C(C(=O)N1c1cc(Cl)cc(Cl)c1)C2(c1ccncc1)c1ccc(OC(F)(F)F)cc1 (single isomer, unassigned) [4w or 4′w diastereomer II] | > 1 µM |  |  |  | 45.7% |

The remaining lines, values ahead:

| IC50 (LFA-1 [1]) | inhibition at 1 µM (LFA-1 [2]) | IC50 (VLA-4) | mAb MEM148 binding, binding relative to solvent ctrl at 10 μM (LFA-1 [3]) | mAb R7.1 binding % inhibition at 1 μM (LFA-1 [2]) | Compound |
| --- | --- | --- | --- | --- | --- |
| 0.202 µM and 0.286 µM |  | > 10 µM |  | 98.4% | CC12C(=O)N(c3cc(Cl)cc(Cl)c3)C(=O)C1C2(c1ccncc1)c1ccc(OC(F)(F)F)cc1 (single isomer, unassigned) [4x or 4′x diastereomer I (racemate), rac-(1 S, 5S, 6R)- and rac-(1 S, 5S, 6S)-3-(3,5-Dichlorophenyl)-1-methyl-6-(pyridin-4-yl)-6-[4-(trifluoromethoxy)phenyl]-3-azabicyclo[3.1.0]hexane-2,4-dione] |
| > 1 µM |  |  |  | 76.9% | CC12C(=O)N(c3cc(Cl)cc(Cl)c3)C(=O)C1C2(c1ccncc1)c1ccc(OC(F)(F)F)cc1 (single isomer, unassigned) [4x or 4′x diastereomer II (racemate), rac-(1 S, 5S, 6R)- and rac-(1 S, 5S, 6S)-3-(3,5-Dichlorophenyl)-1-methyl-6-(pyridin-4-yl)-6-[4-(trifluoromethoxy)phenyl]-3-azabicyclo[3.1.0]hexane-2,4-dione] |
| 0.018 ± 0.014 µM | 98.6% | > 10 µM | 0.937 |  | CC12C(=O)N(c3cc(Cl)cc(Cl)c3)C(=O)C1C2(c1ccc(C#N)cc1)c1ccc(OC(F)(F)F)cc1 (single isomer, unassigned) [4i/4′i diastereomer II (racemate), rac-4-[(1 S, 5S, 6S)- and rac-4-(1 S, 5S, 6R)-3-(3,5-Dichlorophenyl)-1-methyl-2,4-dioxo-6-[4-(trifluoro-methoxy)-phenyl]-3-azabicyclo[3.1.0]hexan-6-yl]benzonitrile] |
